Laboratory results taken from US9440972B2, “Pyrido[2,3-d]pyrimidine-2,4(1 H,3H)-dione derivatives” (Hydra Biosciences, Inc., priority 2014, dated 2016).

Columns and labels:
TRPC5 channel [1] = target: T1, TRPC5 channel (Homo sapiens, UniProt Q9UL62); experiment: Patch clamp experiments (whole-cell, LaCl3-activated TRPC5 current); assay type: cell-based; settings: whole-cell patch clamp in TRPC5-expressing HEK293 TREx cells; block of inward and outward currents in continued presence of LaCl3; IC50 estimated
T1 construct: expressed in transfected cells; host or cells: HEK293/TREx (Invitrogen), tetracycline-induced
T1 sequence (Q9UL62 1-973): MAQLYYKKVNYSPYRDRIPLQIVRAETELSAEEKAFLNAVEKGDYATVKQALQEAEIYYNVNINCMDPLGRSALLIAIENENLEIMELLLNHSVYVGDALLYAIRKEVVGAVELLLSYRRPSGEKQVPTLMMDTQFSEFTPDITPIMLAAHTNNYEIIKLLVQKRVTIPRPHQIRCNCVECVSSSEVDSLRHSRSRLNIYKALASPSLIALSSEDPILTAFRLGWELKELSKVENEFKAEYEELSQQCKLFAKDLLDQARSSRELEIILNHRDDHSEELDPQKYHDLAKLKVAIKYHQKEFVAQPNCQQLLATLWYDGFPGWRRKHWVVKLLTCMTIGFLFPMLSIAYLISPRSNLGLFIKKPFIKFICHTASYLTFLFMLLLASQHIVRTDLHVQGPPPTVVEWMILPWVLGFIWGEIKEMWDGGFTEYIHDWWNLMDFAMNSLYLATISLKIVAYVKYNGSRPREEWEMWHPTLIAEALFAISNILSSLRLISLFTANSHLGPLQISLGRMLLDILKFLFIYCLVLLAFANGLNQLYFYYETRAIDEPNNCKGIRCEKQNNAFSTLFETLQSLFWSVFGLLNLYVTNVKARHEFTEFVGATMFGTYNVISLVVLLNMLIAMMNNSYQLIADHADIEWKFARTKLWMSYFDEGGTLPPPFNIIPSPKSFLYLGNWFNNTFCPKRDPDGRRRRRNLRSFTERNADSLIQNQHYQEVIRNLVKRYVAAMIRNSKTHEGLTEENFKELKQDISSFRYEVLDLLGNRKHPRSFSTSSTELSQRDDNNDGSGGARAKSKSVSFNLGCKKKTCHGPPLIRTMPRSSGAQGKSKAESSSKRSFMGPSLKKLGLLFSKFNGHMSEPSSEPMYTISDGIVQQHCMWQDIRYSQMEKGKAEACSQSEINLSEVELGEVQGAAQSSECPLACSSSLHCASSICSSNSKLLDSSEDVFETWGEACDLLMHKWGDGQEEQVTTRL
Excerpt: Patch clamp experiments permit the detection of currents through the TRPC5 channel in the cell line described above. In normal whole-cell patch clamp recordings, a glass electrode is brought into contact with a single cell and a high-resistance (gigaohm) seal is established with the cell membrane. The membrane is then ruptured to achieve the whole-cell configuration, permitting control of the voltage of the cell membrane and measurement of currents flowing across the membrane using the amplifier attached to the electrode and resulting in the replacement of cytoplasm with the pipette solution. A perfusion system permits control of the extracellular solution, including the addition of blockers and activators of the current. The current can be activated by including 1.4 μM free Ca^2+ in the pipette (intracellular) solution, and 80 μM LaCl3 in the extracellular solution.
TRPC5 cells were induced 20-48 hours, removed from growth plates, and replated at low density (to attain good single-cell physical separation) on glass coverslips for measurement. In some cases, cells were grown in low density overnight on glass coverslips. Patch clamp recordings were made in the whole-cell mode with a holding potential of −40 mV. Every 5 seconds, a voltage ramp was applied from −120 to +100 mV, 400 ms in duration. Currents elicited were quantified at −80 mV and +80 mV. The internal solution consisted of 140 mM cesium aspartate, 10 mM HEDTA, 2 mM CaCl2, 2.27 mM MgCl2 and 10 mM HEPES, pH 7.2, with 1,400 nM calculated free Ca^2+. The external solution consisted of 150 mM NaCl, 4.5 mM KCl, 1 mM MgCl2, 2 mM CaCl2, 10 mM HEPES, 10 mM glucose, 1 mM EGTA, pH 7.4. Upon addition of LaCl3, TRPC5 current was induced only in TRPC5-expressing cells and not in parental HEK293 TREx cells. Removal of the LaCl3 stimulus causes most of the current to go away. Potential blockers were tested for ability to block both inward and outward currents in the continued presence of LaCl3.
IC50 of a compound of Formula (I) was estimated by testing the compound at 5 μM and 500 nM. […] IC50 for a compound of Formula (I) between 500 nM and 5 μM was similarly estimated.

TRPC5 channel [2] = target: T1, TRPC5 channel; experiment: High throughput screening assay: Fluo4 cell-based fluorescence assay of intracellular Ca2+ rise; settings: HEK293/TREx cells inducibly expressing TRPC5, 0.027-20 μM in triplicate, NF = no IC50 curve could be fit
Excerpt: The assay depended on detection of the rise in intracellular Ca2+ concentration ([Ca2+]i) following channel activation in cells inducibly expressing the TRPC5 channel. Ca2+ rise was quantified with the use of fluorescent Ca2+ indicators that were loaded into cells and thereafter indicated the [Ca2+]i Ca2+ influx followed activation of the TRPC5 channel. Compounds inhibiting the [Ca2+]i rise were considered hits for further investigation.
The commercially available HEK293/TREx line (Invitrogen) was stably transfected with a TRPC5 construct and screened by conventional calcium imaging to find clones with TRPC5 expression following stimulation with 1 μg/ml tetracycline. These cells were maintained in the growth medium recommended by the manufacturer supplemented with 100 μg/ml hygromycin to promote retention of the TRPC5 construct. After growing to near confluency, cells were plated at a density of ˜35,000 cells/well in 384 well CellBind plates (Corning) in the presence of 1 μg/ml tetracycline, and allowed to grow for 20-30 hrs. A nearly confluent monolayer resulted. Cells were then loaded with Ca2+ dye: Fura-2/AM or Fluo4/AM was added to the wells to a final concentration of 4 μM or 0.5 μM, respectively, and incubated for 80 min or 60 min, respectively, at room temperature. Supernatant was then removed from the cells by inverting plates with a sharp flick, and 25 μl Hank's Balanced Salt Solution (HBSS; 0.185 g/l D-glucose, 0.9767 g/l MgS04 (anhydrous), 0.4 g/l KCl, 0.06 g/l KH2PO4 (anhydrous), 0.35 g/l NaHCO3, 8.0 g/l NaCl, and 0.04788 g/l Na2HPO4 (anhydrous); pH 7.4) was then added to each well. Following ˜0.5 hour for recovery from loading, cells were assayed using the Hamamatsu FDSS 6000 system, which permitted illumination alternately at 340 nm and 380 nm for Fura-2 experiments, or at 485 nm for Fluo4 experiments. Frames were acquired at a rate of 0.2 Hz. During the assay, the plates were continuously vortexed, with pipette mixing of wells following addition of each reagent. For the screening assay, 26 μl of a diluted compound stock (at 50 μM) was added to each well for 2 minutes following the collection of a short (4 frame) baseline. 13 μl 62 mM high-Ca2+Ringer solution (4.17 ml of normal ringer (with 2 mM Ca2+) plus 5.83 ml of isotonic calcium ringer (105 mM Ca2+; in this ringer all sodium has been replaced with calcium)) was then added to each well, achieving a final concentration of 14 mM Ca2+ and 10 μM test compound. Data was collected for ˜3 minutes following addition of high Ca2+Ringer, where the fluorescent intensity (for Fluo4) and the F340/F380 ratio (for Fura-2) were proportional to the [Ca2+]i Negative controls consisted of HEK293/TREx TRPC5 cells exposed to high Ca2+ solution, but no compound. Positive control conditions consisted of addition of 2-APB, a promiscuous blocker of TRPC5 and other channels, to columns 23 and 24 of the plates, to a final concentration of 200 μM. These controls defined a screening window, and “hits” were defined as those compounds inhibiting the fluorescence response by at least 40%. IC50 values were determined for compounds defined as “hits.” The Fluo4 cell-based fluorescence assay was used to determine the intracellular Ca2+ concentration in the presence of varying drug concentration. Final concentrations of compounds tested were 20 μM, 6.667 μM, 2.222 μM, 0.741 μM, 0.247 μM, 0.082 μM, and 0.027 μM. Compounds were tested in triplicate at all concentrations. Standard software was used to fit IC50 curves. A value of NF was assigned when no IC50 curves could not be fit.
Additionally or alternatively, efficacy can be represented as % inhibition in the presence (of a given concentration of compound) versus the absence of compound or in comparison to a control compound. For example, efficacy can be represented as % inhibition of ion flux in the presence versus the absence of compound.

| Structure (SMILES) | IC50 (TRPC5 channel [1]) [nM] | IC50 (TRPC5 channel [2]) [nM] |
| --- | --- | --- |
| Cn1c(=O)n(CCCO)c(=O)c2c(Cc3ccc(Cl)cn3)c(-c3cccc(OC(F)(F)F)c3)cnc21 [Compound 35, 5-((5-chloropyridin-2-yl)methyl)-3-(3-hydroxypropyl)-1-methyl-6-(3-(trifluoromethoxy)phenyl)pyrido[2,3-d]pyrimidine-2,4(1H,3H)-dione] | 3.4 | 14 |
| CC(C)Oc1cnc2c(c1Cc1ccc(Cl)cc1)c(=O)n(CCCO)c(=O)n2C [Compound 36, 5-(4-chlorobenzyl)-3-(3-hydroxypropyl)-6-isopropoxy-1-methylpyrido[2,3-d]pyrimidine-2,4(1H,3H)-dione] | 1.2 | 27 |
